Consider twelve compounds from patent US20260242419A1, “A CYCLIC PEPTIDE FOR TRAPPING INTERLEUKIN-1 BETA” (Merck Sharp & Dohme LLC, priority 2023, published 2026).

Starred links: 1 amine or outer side, 2 acyl side, 3 side chain; linkers in the order of their positions; H or OH if unused. Non-standard residues stand in square brackets, D forms with d. Residues, ends and D or L forms follow the SMILES beside them. Groups on a side chain read outwards from the residue. *: point of attachment. dPro(4R-(4-pyridylmethyl)) = O=C(O)[C@H]1C[C@@H](Cc2ccncc2)CN1; X17 = CN(C)C(=O)c1ccc(-c2ccc(C[C@H](N[*:1])C(=O)[*:2])cc2)cc1; Trp(βS-Me,4-F) = C[C@@H](c1c[nH]c2cccc(F)c12)[C@H](N)C(=O)O; Bip(4'-CONH2) = NC(=O)c1ccc(-c2ccc(C[C@H](N)C(=O)O)cc2)cc1; Bip(4'-COOH) = N[C@@H](Cc1ccc(-c2ccc(C(=O)O)cc2)cc1)C(=O)O; dPro(4R-Bzl(4-F)) = O=C(O)[C@H]1C[C@@H](Cc2ccc(F)cc2)CN1; dPro(3S-(4-F-Bn)) = O=C(O)[C@@H]1NCC[C@@H]1Cc1ccc(F)cc1; Ala(pyrimidin-5-yl) = N[C@@H](Cc1cncnc1)C(=O)O; Phe(4-COOH) = N[C@@H](Cc1ccc(C(=O)O)cc1)C(=O)O; X25 = C[N+](C)(C)CCC[C@H](N[*:1])C(=O)[*:2]; Bip = N[C@@H](Cc1ccc(-c2ccccc2)cc1)C(=O)O; Lys(Me3) = C[N+](C)(C)CCCC[C@H](N)C(=O)O; Phe(4-Br) = N[C@@H](Cc1ccc(Br)cc1)C(=O)O; Pro(cis-4-F) = O=C(O)[C@@H]1C[C@H](F)CN1; Ala(4-THP) = N[C@@H](CC1CCOCC1)C(=O)O; Cyclohexanecarbonyl = O=C(C1CCCCC1)*; AEF = NCCOc1ccc(C[C@H](N)C(=O)O)cc1; d(αMeD) = C[C@@](N)(CC(=O)O)C(=O)O; Pyrazinecarbonyl = O=C(c1cnccn1)*; 4Pal = N[C@@H](Cc1ccncc1)C(=O)O; Dab = NCC[C@H](N)C(=O)O; Aib = CC(C)(N)C(=O)O; Inp = O=C(O)C1CCNCC1; Piv = CC(C)(C)C(=O)*; X50 = O=C(c1ccncn1)*; X2 = O=C(c1ncccn1)*

The first experiment deals with T1, IL-1β (Homo sapiens, UniProt P01584).
T1 construct: purchased BioLegend 579404
T1 sequence (P01584 117-269): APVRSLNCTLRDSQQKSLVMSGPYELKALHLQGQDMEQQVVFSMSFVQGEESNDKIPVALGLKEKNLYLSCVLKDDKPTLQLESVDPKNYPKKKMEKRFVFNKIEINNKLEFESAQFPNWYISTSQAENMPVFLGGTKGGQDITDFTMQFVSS
The experiment in a line: IL-6 assay in MRC5 cells: inhibition of IL-1β induced IL-6 secretion (AlphaLISA). The format is cell-based. To be noted: inhibition of IL-1β induced IL-6 secretion in MRC5 cells; compound pre-incubated 1 hour with recombinant human IL-1β; read-out: MRC5 IC50. The essentials:
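Compound was pre-incubated 1 h at ambient temperature with recombinant human IL-1β at 2λ EC80 before adding human lung fibroblast MRC5 cells (3000/well) in EMEM with 0.025% BSA. After overnight culture at 37 °C, 5% CO2, secreted IL-6 in conditioned medium was measured by AlphaLISA; IC50 from 4-parameter logistic fits.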
A general note: Bead proximity is the source of the signal in Alpha formats.
Usually IC50 stands for the point on the concentration scale where inhibition reaches its midpoint. For `C[C@@H](c1c[nH]c2cccc(F)c12)[C@@H]1NC(=O)[C@@H]2C[C@H](F)CN2C(=O)CNC(=O)[C@H](Cc2ccc(C(=O)O)cc2)NC(=O)[C@H](Cc2ccncc2)NC(=O)[C@H](Cc2ccc(-c3ccccc3)cc2)NC(=O)[C@H]2C[C@@H](Cc3ccncc3)CN2C(=O)CNC(=O)[C@H](CCN)NC(=O)[C@H](CCC(N)=O)NC(=O)[C@H](CC2CCOCC2)NC(=O)[C@@](C)(CC(=O)O)NC(=O)[C@H](Cc2c[nH]c3ccccc23)NC(=O)[C@H](CO)NC(=O)C(C)(C)NC1=O` [Example 294] (cyclo([Bip][4Pal][Phe(4-COOH)]G[Pro(cis-4-F)][Trp(βS-Me,4-F)][Aib]SW[d(αMeD)][Ala(4-THP)]Q[Dab]G[dPro(4R-(4-pyridylmethyl))])), the IC50 was found to be 0.014 nM.

As for `C[C@@H](c1c[nH]c2cccc(F)c12)[C@@H]1NC(=O)[C@@H]2C[C@H](F)CN2C(=O)CNC(=O)[C@H](Cc2ccc(C(=O)O)cc2)NC(=O)[C@H](Cc2ccncc2)NC(=O)[C@H](Cc2ccc(-c3ccc(C(=O)N(C)C)cc3)cc2)NC(=O)[C@H]2C[C@@H](Cc3ccncc3)CN2C(=O)CNC(=O)[C@H](CCN)NC(=O)[C@H](CCC(N)=O)NC(=O)[C@H](CC2CCOCC2)NC(=O)[C@@](C)(CC(=O)O)NC(=O)[C@H](Cc2c[nH]c3ccccc23)NC(=O)[C@H](CO)NC(=O)C(C)(C)NC1=O` [Example 295] (cyclo([X17][4Pal][Phe(4-COOH)]G[Pro(cis-4-F)][Trp(βS-Me,4-F)][Aib]SW[d(αMeD)][Ala(4-THP)]Q[Dab]G[dPro(4R-(4-pyridylmethyl))])), the IC50 amounted to 0.012 nM.

With `C[C@@H](c1c[nH]c2cccc(F)c12)[C@@H]1NC(=O)[C@@H]2C[C@H](F)CN2C(=O)CNC(=O)[C@H](Cc2ccc(C(=O)O)cc2)NC(=O)[C@H](Cc2ccncc2)NC(=O)[C@H](Cc2ccc(-c3ccc(C(N)=O)cc3)cc2)NC(=O)[C@H]2C[C@@H](Cc3ccncc3)CN2C(=O)CNC(=O)[C@H](CCN)NC(=O)[C@H](CCC(N)=O)NC(=O)[C@H](CC2CCOCC2)NC(=O)[C@@](C)(CC(=O)O)NC(=O)[C@H](Cc2c[nH]c3ccccc23)NC(=O)[C@H](CO)NC(=O)C(C)(C)NC1=O` [Example 296] (cyclo([Bip(4'-CONH2)][4Pal][Phe(4-COOH)]G[Pro(cis-4-F)][Trp(βS-Me,4-F)][Aib]SW[d(αMeD)][Ala(4-THP)]Q[Dab]G[dPro(4R-(4-pyridylmethyl))])), the IC50 was determined as 0.013 nM.

For `C[C@@H](c1c[nH]c2cccc(F)c12)[C@@H]1NC(=O)[C@@H]2C[C@H](F)CN2C(=O)CNC(=O)[C@H](Cc2ccc(C(=O)O)cc2)NC(=O)[C@H](Cc2ccncc2)NC(=O)[C@H](Cc2ccc(-c3ccc(C(=O)O)cc3)cc2)NC(=O)[C@H]2C[C@@H](Cc3ccc(F)cc3)CN2C(=O)CNC(=O)[C@H](CCN)NC(=O)[C@H](CCC(N)=O)NC(=O)[C@H](CCC[N+](C)(C)C)NC(=O)C(C)(C)NC(=O)[C@H](Cc2c[nH]c3ccccc23)NC(=O)[C@H](CO)NC(=O)C(C)(C)NC1=O` [Example 297] (cyclo([Bip(4'-COOH)][4Pal][Phe(4-COOH)]G[Pro(cis-4-F)][Trp(βS-Me,4-F)][Aib]SW[Aib][X25]Q[Dab]G[dPro(4R-Bzl(4-F))])), the IC50 was determined as 0.022 nM.

For `C[C@@H](c1c[nH]c2cccc(F)c12)[C@@H]1NC(=O)[C@@H]2C[C@H](F)CN2C(=O)CNC(=O)[C@H](Cc2ccc(C(=O)O)cc2)NC(=O)[C@H](Cc2ccncc2)NC(=O)[C@H](Cc2ccc(-c3ccc(C(=O)O)cc3)cc2)NC(=O)[C@H]2C[C@@H](Cc3ccc(F)cc3)CN2C(=O)CNC(=O)[C@H](CCN)NC(=O)[C@H](CCC(N)=O)NC(=O)[C@H](CCCC[N+](C)(C)C)NC(=O)C(C)(C)NC(=O)[C@H](Cc2c[nH]c3ccccc23)NC(=O)[C@H](CO)NC(=O)C(C)(C)NC1=O` [Example 298] (cyclo([Bip(4'-COOH)][4Pal][Phe(4-COOH)]G[Pro(cis-4-F)][Trp(βS-Me,4-F)][Aib]SW[Aib][Lys(Me3)]Q[Dab]G[dPro(4R-Bzl(4-F))])), the IC50 was determined as 0.015 nM.

Consider `C[C@@H](c1c[nH]c2cccc(F)c12)[C@@H]1NC(=O)[C@@H]2C[C@H](F)CN2C(=O)CNC(=O)[C@H](Cc2ccc(C(=O)O)cc2)NC(=O)[C@H](Cc2ccncc2)NC(=O)[C@H](Cc2ccc(Br)cc2)NC(=O)[C@H]2[C@@H](Cc3ccc(F)cc3)CCN2C(=O)CNC(=O)[C@H](CCN)NC(=O)[C@H](CCC(N)=O)NC(=O)[C@H](Cc2cncnc2)NC(=O)[C@@](C)(CC(=O)O)NC(=O)[C@H](Cc2c[nH]c3ccccc23)NC(=O)[C@H](CO)NC(=O)C(C)(C)NC1=O` [Example 299] (cyclo([Phe(4-Br)][4Pal][Phe(4-COOH)]G[Pro(cis-4-F)][Trp(βS-Me,4-F)][Aib]SW[d(αMeD)][Ala(pyrimidin-5-yl)]Q[Dab]G[dPro(3S-(4-F-Bn))])), for which the IC50 came to 0.012 nM.

`C[C@@H](c1c[nH]c2cccc(F)c12)[C@@H]1NC(=O)[C@@H]2C[C@H](F)CN2C(=O)CNC(=O)[C@H](Cc2ccc(C(=O)O)cc2)NC(=O)[C@H](Cc2ccncc2)NC(=O)[C@H](Cc2ccc(OCCNC(=O)C(C)(C)C)cc2)NC(=O)[C@H]2C[C@@H](Cc3ccncc3)CN2C(=O)CNC(=O)[C@H](CCN)NC(=O)[C@H](CCC(N)=O)NC(=O)[C@H](Cc2cncnc2)NC(=O)C(C)(C)NC(=O)[C@H](Cc2c[nH]c3ccccc23)NC(=O)[C@H](CO)NC(=O)C(C)(C)NC1=O` [Example 300] (cyclo([AEF](Piv)[4Pal][Phe(4-COOH)]G[Pro(cis-4-F)][Trp(βS-Me,4-F)][Aib]SW[Aib][Ala(pyrimidin-5-yl)]Q[Dab]G[dPro(4R-(4-pyridylmethyl))])): the IC50 was 0.013 nM.

Turning to `C[C@@H](c1c[nH]c2cccc(F)c12)[C@@H]1NC(=O)[C@@H]2C[C@H](F)CN2C(=O)CNC(=O)[C@H](Cc2ccc(C(=O)O)cc2)NC(=O)[C@H](Cc2ccncc2)NC(=O)[C@H](Cc2ccc(OCCNC(=O)C3CCCCC3)cc2)NC(=O)[C@H]2C[C@@H](Cc3ccncc3)CN2C(=O)CNC(=O)[C@H](CCN)NC(=O)[C@H](CCC(N)=O)NC(=O)[C@H](Cc2cncnc2)NC(=O)C(C)(C)NC(=O)[C@H](Cc2c[nH]c3ccccc23)NC(=O)[C@H](CO)NC(=O)C(C)(C)NC1=O` [Example 301] (cyclo([AEF](Cyclohexanecarbonyl)[4Pal][Phe(4-COOH)]G[Pro(cis-4-F)][Trp(βS-Me,4-F)][Aib]SW[Aib][Ala(pyrimidin-5-yl)]Q[Dab]G[dPro(4R-(4-pyridylmethyl))])), the IC50 came out at 0.017 nM.

In the case of `CC(=O)N1CCC(C(=O)NCCOc2ccc(C[C@@H]3NC(=O)[C@H]4C[C@@H](Cc5ccncc5)CN4C(=O)CNC(=O)[C@H](CCN)NC(=O)[C@H](CCC(N)=O)NC(=O)[C@H](Cc4cncnc4)NC(=O)C(C)(C)NC(=O)[C@H](Cc4c[nH]c5ccccc45)NC(=O)[C@H](CO)NC(=O)C(C)(C)NC(=O)[C@H]([C@@H](C)c4c[nH]c5cccc(F)c45)NC(=O)[C@@H]4C[C@H](F)CN4C(=O)CNC(=O)[C@H](Cc4ccc(C(=O)O)cc4)NC(=O)[C@H](Cc4ccncc4)NC3=O)cc2)CC1` [Example 302] (cyclo([AEF]([Inp-Ac])[4Pal][Phe(4-COOH)]G[Pro(cis-4-F)][Trp(βS-Me,4-F)][Aib]SW[Aib][Ala(pyrimidin-5-yl)]Q[Dab]G[dPro(4R-(4-pyridylmethyl))])), the IC50 stood at 0.017 nM.

With `C[C@@H](c1c[nH]c2cccc(F)c12)[C@@H]1NC(=O)[C@@H]2C[C@H](F)CN2C(=O)CNC(=O)[C@H](Cc2ccc(C(=O)O)cc2)NC(=O)[C@H](Cc2ccncc2)NC(=O)[C@H](Cc2ccc(OCCNC(=O)c3cnccn3)cc2)NC(=O)[C@H]2C[C@@H](Cc3ccncc3)CN2C(=O)CNC(=O)[C@H](CCN)NC(=O)[C@H](CCC(N)=O)NC(=O)[C@H](Cc2cncnc2)NC(=O)C(C)(C)NC(=O)[C@H](Cc2c[nH]c3ccccc23)NC(=O)[C@H](CO)NC(=O)C(C)(C)NC1=O` [Example 303] (cyclo([AEF](Pyrazinecarbonyl)[4Pal][Phe(4-COOH)]G[Pro(cis-4-F)][Trp(βS-Me,4-F)][Aib]SW[Aib][Ala(pyrimidin-5-yl)]Q[Dab]G[dPro(4R-(4-pyridylmethyl))])), the IC50 was found to be 0.016 nM.

Still in this experiment, the particulars now being: inhibition of IL-1β induced IL-6 secretion in MRC5 cells; read-out: MRC5 IC50.
As to `C[C@@H](c1c[nH]c2cccc(F)c12)[C@@H]1NC(=O)[C@@H]2C[C@H](F)CN2C(=O)CNC(=O)[C@H](Cc2ccc(C(=O)O)cc2)NC(=O)[C@H](Cc2ccncc2)NC(=O)[C@H](Cc2ccc(OCCNC(=O)c3ncccn3)cc2)NC(=O)[C@H]2C[C@@H](Cc3ccncc3)CN2C(=O)CNC(=O)[C@H](CCN)NC(=O)[C@H](CCC(N)=O)NC(=O)[C@H](Cc2cncnc2)NC(=O)C(C)(C)NC(=O)[C@H](Cc2c[nH]c3ccccc23)NC(=O)[C@H](CO)NC(=O)C(C)(C)NC1=O` [Example 304] (cyclo([AEF](X2)[4Pal][Phe(4-COOH)]G[Pro(cis-4-F)][Trp(βS-Me,4-F)][Aib]SW[Aib][Ala(pyrimidin-5-yl)]Q[Dab]G[dPro(4R-(4-pyridylmethyl))])), the IC50 turned out to be 0.014 nM.

For `C[C@@H](c1c[nH]c2cccc(F)c12)[C@@H]1NC(=O)[C@@H]2C[C@H](F)CN2C(=O)CNC(=O)[C@H](Cc2ccc(C(=O)O)cc2)NC(=O)[C@H](Cc2ccncc2)NC(=O)[C@H](Cc2ccc(OCCNC(=O)c3ccncn3)cc2)NC(=O)[C@H]2C[C@@H](Cc3ccncc3)CN2C(=O)CNC(=O)[C@H](CCN)NC(=O)[C@H](CCC(N)=O)NC(=O)[C@H](Cc2cncnc2)NC(=O)C(C)(C)NC(=O)[C@H](Cc2c[nH]c3ccccc23)NC(=O)[C@H](CO)NC(=O)C(C)(C)NC1=O` [Example 305] (cyclo([AEF](X50)[4Pal][Phe(4-COOH)]G[Pro(cis-4-F)][Trp(βS-Me,4-F)][Aib]SW[Aib][Ala(pyrimidin-5-yl)]Q[Dab]G[dPro(4R-(4-pyridylmethyl))])), the concentration for half-maximal inhibition (IC50) stood at 0.016 nM.
